In ChEMBL document CHEMBL1201862, “PubChem BioAssay data set” (2004):
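A five-concentration, 48-hour dose response in 96-well plates underlies each endpoint, interpolated linearly between surrounding concentrations. GI50 = concentration required for 50% inhibition of growth.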 Active and inactive are the calls of the source. No stated cut-off is given here; in the data, active = GI50 up to about 1.1 µM and inactive = higher.

Key:
Assay in all cases: DTP human tumour cell line panel, 48 h
786-0 = test system: 786-0
A498 = test system: A498
A549 = test system: A549
ACHN = test system: ACHN
BT-549 = test system: BT-549
CCRF-CEM = test system: CCRF-CEM
DU-145 = test system: DU-145
EKVX = test system: EKVX
HCC 2998 = test system: HCC 2998
HCT-116 = test system: HCT-116
HL-60 = test system: HL-60
HOP-62 = test system: HOP-62
HOP-92 = test system: HOP-92
HT-29 = test system: HT-29
Hs-578T = test system: Hs-578T
IGROV-1 = test system: IGROV-1
K562 = test system: K562
KM12 = test system: KM12
M14 = test system: M14
MCF7 = test system: MCF7
MDA-MB-231 = test system: MDA-MB-231
MDA-MB-435 = test system: MDA-MB-435
MDA-N = test system: MDA-N
MOLT-4 = test system: MOLT-4
Malme-3M = test system: Malme-3M
NCI-H226 = test system: NCI-H226
NCI-H23 = test system: NCI-H23
NCI-H460 = test system: NCI-H460
NCI/ADR-RES = test system: NCI/ADR-RES
OVCAR-3 = test system: OVCAR-3
OVCAR-5 = test system: OVCAR-5
OVCAR-8 = test system: OVCAR-8
PC-3 = test system: PC-3
RXF 393 = test system: RXF 393
SF-268 = test system: SF-268
SF-295 = test system: SF-295
SF-539 = test system: SF-539
SK-MEL-28 = test system: SK-MEL-28
SK-MEL-5 = test system: SK-MEL-5
SK-OV-3 = test system: SK-OV-3
SN12C = test system: SN12C
SNB-19 = test system: SNB-19
SR = test system: SR
SW-620 = test system: SW-620
T47D = test system: T47D
TK-10 = test system: TK-10
U-251 = test system: U-251
UACC-62 = test system: UACC-62
UO-31 = test system: UO-31

Measured: GI50

CCOC1CC(C)N(C(=O)c2ccccc2)O1 (centres undefined)
inactive: 786-0 > 100 µM | A498 > 100 µM | A549 > 100 µM | ACHN > 100 µM | BT-549 > 100 µM | CCRF-CEM > 100 µM | DU-145 > 100 µM | EKVX > 100 µM | HCC 2998 > 100 µM | HCT-116 > 100 µM | HL-60 > 100 µM | HOP-62 > 100 µM | HOP-92 31.7 µM | HT-29 > 100 µM | Hs-578T > 100 µM | IGROV-1 > 100 µM | K562 > 100 µM | KM12 > 100 µM | M14 > 100 µM | MCF7 > 100 µM | MDA-MB-231 > 100 µM | MDA-MB-435 > 100 µM | MDA-N > 100 µM | MOLT-4 > 100 µM | Malme-3M > 10 µM | NCI-H226 > 100 µM | NCI-H23 > 100 µM | NCI-H460 > 100 µM | NCI/ADR-RES > 100 µM | OVCAR-3 > 100 µM | OVCAR-5 > 100 µM | OVCAR-8 > 100 µM | PC-3 80.2 µM | RXF 393 > 100 µM | SF-268 > 100 µM | SF-295 > 100 µM | SF-539 > 100 µM | SK-MEL-28 > 100 µM | SK-MEL-5 > 100 µM | SK-OV-3 > 100 µM | SN12C > 100 µM | SNB-19 > 100 µM | SR > 100 µM | SW-620 > 100 µM | T47D > 100 µM | TK-10 > 100 µM | U-251 > 100 µM | UACC-62 > 100 µM | UO-31 > 100 µM
